6 compounds from PMC10314922, “Fluorescence lifetime FRET assay for live-cell high-throughput screening of the cardiac SERCA pump yields multiple classes of small-molecule allosteric modulators” (Scientific Reports, 2023) can be followed below.

For orientation: EC50 means the concentration at which the effect is half-maximal. Lower therefore signals greater potency.

The target in test [1] is T1, SERCA2a (Sus scrofa, UniProt P11607).
T1 construct: Cardiac SR vesicles were isolated from fresh porcine left ventricular tissue using differential centrifugation; from tissue; host or cells: porcine left ventricular tissue (cardiac SR vesicles)
T1 sequence (P11607 1-997 isoform P11607-2): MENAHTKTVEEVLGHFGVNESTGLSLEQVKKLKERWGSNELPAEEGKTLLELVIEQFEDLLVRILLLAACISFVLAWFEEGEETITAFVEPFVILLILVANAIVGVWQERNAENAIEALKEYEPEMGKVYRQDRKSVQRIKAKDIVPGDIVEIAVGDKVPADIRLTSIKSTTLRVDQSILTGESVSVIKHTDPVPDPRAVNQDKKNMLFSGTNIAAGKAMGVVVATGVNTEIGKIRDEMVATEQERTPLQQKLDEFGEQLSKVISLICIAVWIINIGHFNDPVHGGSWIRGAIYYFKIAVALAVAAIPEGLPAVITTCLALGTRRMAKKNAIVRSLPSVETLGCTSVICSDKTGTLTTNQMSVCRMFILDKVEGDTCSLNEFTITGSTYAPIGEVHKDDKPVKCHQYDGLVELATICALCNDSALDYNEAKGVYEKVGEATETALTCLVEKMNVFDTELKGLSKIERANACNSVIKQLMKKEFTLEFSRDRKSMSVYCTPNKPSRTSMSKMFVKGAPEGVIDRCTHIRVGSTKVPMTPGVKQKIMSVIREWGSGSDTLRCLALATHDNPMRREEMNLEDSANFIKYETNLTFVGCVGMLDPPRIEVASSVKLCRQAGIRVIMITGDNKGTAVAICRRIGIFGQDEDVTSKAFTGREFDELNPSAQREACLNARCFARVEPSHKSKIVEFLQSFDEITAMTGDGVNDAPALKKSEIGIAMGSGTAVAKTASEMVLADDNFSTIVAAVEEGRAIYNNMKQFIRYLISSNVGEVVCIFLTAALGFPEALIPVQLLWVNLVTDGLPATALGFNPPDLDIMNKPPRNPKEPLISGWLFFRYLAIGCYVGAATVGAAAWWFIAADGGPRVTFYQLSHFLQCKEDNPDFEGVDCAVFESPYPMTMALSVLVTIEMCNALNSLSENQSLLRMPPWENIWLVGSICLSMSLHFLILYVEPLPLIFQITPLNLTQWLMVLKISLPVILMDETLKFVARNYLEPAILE
As to the kind of experiment: NADH-linked Ca2+-ATPase activity assay in pig cardiac SR (pCSR) vesicles. It is filed as biochemical. The note with it: for Ca2+-ATPase ΔFMAX / Ca2+-ATPase ΔFMID: maximal compound effect vs DMSO control, pCSR; for Effect on Ca2+-ATPase activity (category, Fig. 4A): activators, categories activate / uncouple / inhibit. As to the method:
(§1) Cardiac SR vesicles were isolated from fresh porcine left ventricular tissue using differential centrifugation of the homogenized tissue as previously described. The SR vesicles were flash-frozen and stored at − 80 °C until needed. The SERCA concentration in the ER preparations purified from HEK cell homogenate is at least 10 times less than in purified porcine cardiac SR[20], but there was sufficient expression of the fluorescent SERCA2a biosensor in HEK cells to detect FRET with high precision by FLT[22],[23],[26].
Functional assays were performed using porcine cardiac SR (pCSR) vesicles. An enzyme-coupled, NADH-linked ATPase assay was used to measure SERCA ATPase activity in 384-well microplates. Each well contained 50 mM MOPS (pH 7.0), 100 mM KCl, 1 mM EGTA, 0.2 mM NADH, 1 mM phosphoenol pyruvate, 10 IU/mL of pyruvate kinase, 10 IU/mL of lactate dehydrogenase, 7 µM of the calcium ionophore A23187 (Sigma), and CaCl2 was added to set free [Ca^2+] to three different concentrations. Ca^2+-ATPase activity was measured at three [Ca^2+]: [Ca^2+]MAX (saturating, pCa 5.4), [Ca^2+]MID (subsaturating, midpoint, pCa 6.2), and [Ca^2+]BAS (basal non-activating, pCa 8.0). 10 μg/mL of SR vesicle, calcium, compound (0.048 to 50 μM), and assay mix were incubated for 20 min at room temperature before measurement of functional assays with each of the 18 hit compounds, because a shorter incubation time than the FRET live-cell assays achieved optimal responses. The assay was started upon the addition of MgATP, at a final concentration of 5 mM (total volume to 80 μL), and absorbance was read at 340 nm in a SpectraMax Plus^384 microplate spectrophotometer (Molecular Devices, Sunnyvale, CA).
(§2) SERCA2a activity, F (rate of ATP hydrolysis or Ca^2+ uptake), was measured at varying pCa and varying compound concentration. F measured at [Ca^2+]MAX (saturating, pCa 5.4) or [Ca^2+]MID (subsaturating, midpoint, pCa 6.2) was corrected by subtracting the basal rate at pCa 8.0) and the % effect due to compound was reported. Concentration response curves (CRC) were fitted using the Hill function to determine VMAX (the activity at saturating [compound]), and EC50, the compound concentration at 50% effect.

Test [2] addresses T1, SERCA2a. As to the kind of experiment: Oxalate-supported Fluo-4 Ca2+-uptake (Ca2+-transport) assay in pig cardiac SR (pCSR) vesicles. It is filed as biochemical. The note with it: for Ca2+-Uptake C10: concentration yielding 10% effect; for Decrease (inhibition) of Ca2+-uptake at [Ca2+]MAX: size of decrease; for Ca2+-Uptake ΔFMID / Ca2+-Uptake ΔFMAX: maximal compound effect vs DMSO control, pCSR; for Effect on Ca2+-uptake (category, Fig. 4A): activators, categories activate / uncouple / inhibit; for CR (coupling ratio) VU/VA: maximum Ca2+-uptake rate / Ca2+-ATPase rate at [Ca2+]MAX, DMSO control = 0.66; for Increase in Ca2+-uptake: over [Ca2+]MAX and [Ca2+]MID. The procedure: as §1
Ca^2+-transport assays were performed with similar porcine SR samples as in the Ca^2+-ATPase assays described above. The compound effect on the Ca^2+-transport activity of SERCA2a was determined using an oxalate-supported assay in which the change in fluorescence in a Ca^2+-sensitive dye, Fluor-4, was determined as previously described. A buffered solution containing 50 mM MOPS (pH 7.0), 100 mM KCl, 30 mg/mL sucrose, 1 mM EGTA, 10 mM potassium oxalate, 2 µM Fluo-4, 30 µg/mL porcine cardiac SR vesicles, CaCl2 calculated to reach the free [Ca^2+] (pCa 8.0, 6.2, and 5.4), and compound (0.048 to 50 μM) was dispensed into 384-well black walled, transparent bottomed plates (Greiner Bio-One) containing the tested small molecule and incubated at 22℃ for 20 min while covered and protected from light. To start the reaction, MgATP was added to a final concentration of 5 mM, and the decrease in 485-nm excited fluorescence of Fluo-4 was monitored at 520 nm for 15 min using a FLIPR Tetra (Molecular Devices, San Jose, CA).
as §2

Where [3] appears, read: [Ca2+]MAX (pCa5.4), concentration yielding 10% effect.
Where [4] appears, read: [Ca2+]MID (pCa6.2), concentration yielding 10% effect.

SMILES strings stand for the structures. Where “and” joins values, the source holds several entries; their conditions need not be identical. Equal values may be shown once.

Turning to `Cc1cnc(C)c(N2CCN(C(=O)c3cc(COc4ccc5ncccc5c4)on3)CC2)n1` [Compound 1, 6-[(3-{[4-(3,6-dimethyl-2-pyrazinyl)-1-piperazinyl]carbonyl}-5-isoxazolyl)methoxy]quinoline], in test [1], the “Increase in Ca2+-ATPase activity” value is given as 10–25% and the “Effect on Ca2+-ATPase activity (category, Fig. 4A)” value (“Effect on Ca2+-ATPase activity” below) was “activate”. Also, the “Ca2+-ATPase ΔFMAX” value in test [1] ([Ca2+]MAX (pCa5.4)) was 8 ± 6.3%. In addition, the “Ca2+-ATPase ΔFMID” value in test [1] ([Ca2+]MID (pCa6.2)) stood at 8 ± 5.8%. Besides, in test [2] ([Ca2+]MAX (pCa5.4)), the “Ca2+-Uptake C10” value was found to be 50 µM. Further, in test [2], the “Decrease (inhibition) of Ca2+-uptake at [Ca2+]MAX” value was determined as 10%; the “Effect on Ca2+-uptake (category, Fig. 4A)” value (“Effect on Ca2+-uptake” below) was “inhibit”; the “CR (coupling ratio) VU/VA” value was found to be 0.49. The “Ca2+-Uptake ΔFMID” value in test [2] ([Ca2+]MID (pCa6.2)) is 2% and 2 ± 1.0%.
Regarding `c1ccc(-c2cc(CN3CCN(c4ncnc5ccccc45)CC3)on2)cc1` [Compound 4, 4-{4-[(3-phenyl-5-isoxazolyl)methyl]-1-piperazinyl}quinazoline], in test [1] ([Ca2+]MAX (pCa5.4)), the midpoint of the response, the EC50, lay at 15 ± 7.2 µM and the “Ca2+-ATPase ΔFMAX” value turned out to be 10 ± 5.3%. The “Ca2+-ATPase C10” value in test [1] (setting [3]) stood at 50.0 µM. The “Ca2+-ATPase C10” value in test [1] (setting [4]) worked out at 39.2 µM. Further, in test [1] ([Ca2+]MID (pCa6.2)), the “Ca2+-ATPase ΔFMID” value is on record as 11 ± 6.1%. Also, in test [1], the “Effect on Ca2+-ATPase activity” value was “activate”. For the same compound, in test [2] ([Ca2+]MAX (pCa5.4)), the “Ca2+-Uptake ΔFMAX” value was 0.5% and 0.5 ± 3.2%. Also, in test [2] ([Ca2+]MID (pCa6.2)), the “Ca2+-Uptake C10” value was found to be 47 µM; the “Ca2+-Uptake ΔFMID” value is 11% and 11 ± 2.7%. In test [2], the “Effect on Ca2+-uptake” value is “uncouple”; the “CR (coupling ratio) VU/VA” value came out at 0.51; the “Increase in Ca2+-uptake” value is listed as 0.5–10%.
With `O=C(c1ccc(-c2ccc(O)cc2)nc1)N1CCC(CCc2ccccc2)CC1` [Compound 6, 4-(5-{[4-(2-phenylethyl)piperidin-1-yl]carbonyl}pyridin-2-yl)phenol], in test [1], the “Increase in Ca2+-ATPase activity” value is recorded as 10–25% and the “Effect on Ca2+-ATPase activity” value was “activate”. In addition, the “Ca2+-ATPase C10” value in test [1] (setting [3]) came out at 9.7 µM. In test [1] ([Ca2+]MAX (pCa5.4)), the “Ca2+-ATPase ΔFMAX” value is 25% and 25 ± 6.3%. Also, in test [1] ([Ca2+]MID (pCa6.2)), the 50% effective concentration (EC50) amounted to 11.1 ± 1.5 µM; the “Ca2+-ATPase ΔFMID” value was 30% and 30 ± 10%. Further, the “Ca2+-ATPase C10” value in test [1] (setting [4]) came to 8.7 µM. Moreover, in test [2] ([Ca2+]MAX (pCa5.4)), the EC50 amounted to 16 ± 1.2 µM; the “Ca2+-Uptake C10” value was 15 µM and 15.1 µM. For the same compound, in test [2], the “Decrease (inhibition) of Ca2+-uptake at [Ca2+]MAX” value came out at 21%; the “Effect on Ca2+-uptake” value is listed as “inhibit”; the “CR (coupling ratio) VU/VA” value is reported as 0.48. In addition, in test [2] ([Ca2+]MID (pCa6.2)), it took 2.9 ± 1 µM to reach a half-maximal effect (EC50); the “Ca2+-Uptake C10” value was 4 µM and 4.2 µM; the “Ca2+-Uptake ΔFMID” value was 17% and 17 ± 1.4%.
As for `CCn1nc(C)c(CN2CCCC(Nc3ccc(C(C)C)cc3)C2)c1C` (centres unmarked) [Compound 7, 1-[(1-ethyl-3,5-dimethyl-1H-pyrazol-4-yl)methyl]-N-(4-isopropylphenyl)-3-piperidinamine], the “Ca2+-ATPase C10” value in test [1] (setting [3]) stood at 25 µM. Moreover, in test [1] ([Ca2+]MAX (pCa5.4)), the “Ca2+-ATPase ΔFMAX” value is 14% and 14 ± 2%. The “Ca2+-ATPase ΔFMID” value in test [1] ([Ca2+]MID (pCa6.2)) was 7% and 7 ± 3%. The “Effect on Ca2+-ATPase activity” value in test [1] was “activate”. Further, in test [2] ([Ca2+]MAX (pCa5.4)), the “Ca2+-Uptake C10” value is 14 µM; the “Ca2+-Uptake ΔFMAX” value was 24% and 24 ± 10%. Moreover, in test [2] ([Ca2+]MID (pCa6.2)), the “Ca2+-Uptake C10” value is 21 µM and 20.6 µM; the “Ca2+-Uptake ΔFMID” value was 19% and 19 ± 9.8%. Also, in test [2], the “Effect on Ca2+-uptake” value is given as “activate” and the “CR (coupling ratio) VU/VA” value is recorded as 0.74.
`COc1ccc(C(=O)C2CCCN(Cc3nc(-c4ccc(F)cc4)cs3)C2)c(OC)c1` (centres unmarked) [Compound 8, (2,4-dimethoxyphenyl)(1-{[4-(4-fluorophenyl)-1,3-thiazol-2-yl]methyl}-3-piperidinyl)methanone] displayed a Ca2+-ATPase C10 in test [1] ([Ca2+]MAX) of 4.3 µM. Also, in test [1] ([Ca2+]MAX (pCa5.4)), the EC50 was found to be 8.3 ± 0.9 µM; the “Ca2+-ATPase ΔFMAX” value was 49% and 49 ± 4.8%. For the same compound, in test [1] (setting [3]), the “Ca2+-ATPase C10” value stood at 4.3 µM. Besides, in test [1] ([Ca2+]MID (pCa6.2)), the EC50 turned out to be 10 ± 1.9 µM; the “Ca2+-ATPase ΔFMID” value was 31% and 31 ± 14%. For the same compound, the “Ca2+-ATPase C10” value in test [1] (setting [4]) is on record as 7.8 µM. Also, in test [1], the “Effect on Ca2+-ATPase activity” value was “activate”. Also, in test [2] ([Ca2+]MAX (pCa5.4)), the “Ca2+-Uptake C10” value is 25 µM; the “Ca2+-Uptake ΔFMAX” value is 10% and 10 ± 6.5%. Also, in test [2] ([Ca2+]MID (pCa6.2)), the “Ca2+-Uptake ΔFMID” value was 7% and 7 ± 3.0%. In addition, in test [2], the “Effect on Ca2+-uptake” value is listed as “uncouple”; the “CR (coupling ratio) VU/VA” value was 0.4; the “Increase in Ca2+-uptake” value is recorded as 0.5–10%.
On to `OCC1(Cc2ccccc2F)CCCN(Cc2cc3c(cc2Cl)OCO3)C1` (centres unmarked) [Compound 12, [1-[(6-chloro-1,3-benzodioxol-5-yl)methyl]-3-(2-fluorobenzyl)-3-piperidinyl]methanol], for which the half-maximal effective concentration (EC50) in test [1] ([Ca2+]MAX (pCa5.4)) was determined as 3.8 ± 0.3 µM; in test [1] ([Ca2+]MID (pCa6.2)) it was 4.2 ± 0.4 µM; in test [2] ([Ca2+]MAX (pCa5.4)) it was 1.8 ± 0.1 µM; in test [2] ([Ca2+]MID (pCa6.2)), 3.2 ± 0.1 µM. Further, the “Ca2+-ATPase C10” value in test [1] (setting [3]) and in test [1] (setting [4]) was 1.0 µM in each case. Further, the “Ca2+-Uptake C10” value in test [2] ([Ca2+]MAX (pCa5.4)) is on record as 0.4 µM; in test [2] ([Ca2+]MID (pCa6.2)), 0.8 µM.
